# Experimental data from patent EP4186500A1, “MEK INHIBITORS FOR THE PREVENTION AND TREATMENT OF LONG COVID SYNDROME” (Atriva Therapeutics GmbH, priority 2021, dated 2023).
# Experiments:
# [1] = test system: SARS-CoV-2 strain FI; assay type: cell-based, Severe acute respiratory syndrome coronavirus; conditions: Vero cells, MOI 0.01; 50 µM ATR-002; 24h, 36h and 48h
# [2] = test system: SARS-CoV-2; assay type: cell-based, Severe acute respiratory syndrome coronavirus; conditions: Caco-2, Vero E6 and Calu-3 cells; 100 µM, 75 µM, 50 µM; 24 hours
# [3] = test system: Calu-3 cells; test: Cytotoxicity evaluation in Calu-3 cells; assay type: cell-based, Homo sapiens; conditions: 72 h treatment
# Experimental: In a next step, Calu-3 cells were incubated with increasing amounts of ATR-002 over 24, 48 or 72 hours. Specifically, Calu-3 cells were infected with SARS-CoV-2 (FI) using a MOI of 0.01. 1 h.p.i. cells were treated with ATR-002. Mock, SARS-CoV-2 and DMSO served as controls. […] Untreated (SARS-CoV-2) and DMSO (0.1 %) treated cells served as negative controls. Data represents means ± SD of three independent experiments, each performed in triplicates. Data passed a one-way ANOVA followed by Dunnett's multiple comparison test (^∗∗ p≤0.0021; ^∗∗∗ p≤0,0002; ^∗∗∗∗ p≤0.0001) for each time point separately. DMSO was used as reference. […] Data in combination with (C) was used to calculate the CC50 value and the selectivity index (SI). […] Data represent means ± SD of three independent experiments.
# [4] = test system: cytokine & chemokine gene expression; test: Acute lung injury (ALI) mouse model, LPS induced cytokine and chemokine gene expression; assay type: in vivo; conditions: 5mg/kg LPS i.p.; 25 mg/kg ATR-002 i.p. one hour post stimulation; 6h post treatment
# [5] = test system: MCP-1; test: MCP-1 expression in SARS-CoV-2 infected CaCo2 cells; assay type: cell-based, Homo sapiens; conditions: high amount of ATR-002 necessary
# [6] = test system: IL-6, IL-8, MCP-1, IP-10 and CCL5 mRNA; test: Pro-inflammatory cytokine mRNA expression in SARS-CoV-2 infected Calu-3 cells (real-time PCR); assay type: cell-based, Homo sapiens; conditions: SARS-CoV-2 (FI) MOI 0.01, increasing amounts of ATR-002
# [7] = test system: MxA and IL8 mRNA; test: MxA and IL8 mRNA expression in poly (I:C) transfected A549 cells; assay type: cell-based, Homo sapiens; conditions: 100 ng/ml poly (I:C), 24 hours
# [8] = test system: SARS-CoV-2 (FI); assay type: cell-based, Severe acute respiratory syndrome coronavirus; conditions: primary human ALI cultures, MOI 1.0; 50 µM and 100 µM; three cultures
# [9] = test system: ACE2; test: ACE2 expression in Calu-3 cells (immunofluorescence microscopy and WES); assay type: cell-based, Homo sapiens; conditions: 100µM ATR-002, 24h
# Experimental: Then the wells were washed once with PBS and fixed with 300µL/well 4% PFA in PBS for 10 minutes at room temperature. After another wash step with PBS, the cells were blocked for 1 hour with 1% BSA in PBS at room temperature before incubation with 200µL/well of the primary antibody (Goat-Anti-ACE2 antibody (R&D systems; Cat.: AF933; Lot.:HOK0320061) (1:20) in 1% BSA in PBS for 1h at room temperature on a shaker (100 rpm). Afterwards, the cells were washed three times with PBS before incubation with 200µL/well of the secondary antibody Donkey anti-Goat IgG (H+L) Highly Cross-Absorbed Secondary Antibody, Alexa Fluor Plus 647 (Invitrogen; Ref.: A32849TR; Lot.:VE306231) (1:200) in 1% BSA in PBS for 45 minutes at room temperature on a shaker. After another three wash steps with PBS, 200µL Rhodamine Phalloidin (Invitrogen; Ref.: R415; Lot.: 2157163) (1:40 in 1% BSA in PBS) were added to each well and incubated for 30 minutes at room temperature on a shaker. After two final wash steps with PBS, the cover slips were removed from the wells and mounted on microscope slides with Roti®-Mount FluorCare DAPI (Roth; Art.-Nr.: HP20.1; Lot.: 080293945). The slides were let dry at 4°C in the dark and then analysed using a confocal laser scanning microscope (LSM800, Zeiss).
# [10] = test system: VSV ΔG/GFP-Luc+SΔ21; assay type: cell-based
# [11] = human, in vivo
# [12] = test system: IP10, TNF-alpha and MCP-1; test: Cytokine/chemokine expression in LPS induced PBMC
# [13] = test system: Human T-cell Inflammation; test: T-cell inflammation inhibition assay (ConA and PHA stimulation) in PBMC; conditions: 100, 50, and 25 µM, 24 hours, PBMC from three human donors
# [14] = test system: memory T cells; test: 12-day T cell clonal expansion with IFN-γ FluoroSpot (memory T cell reactivation)
# [15] = LPS induced PMBC cells, 10µg/ml ATR-002
structure (smiles),measurement,setting,value
"O=C(O)c1ccc(F)c(F)c1Nc1ccc(I)cc1Cl [ATR-002, 2-(2-chloro-4-iodophenylamino)-N-3,4-difluoro benzoic acid]",viral load (virus titer by plaque assay),[1],lower viral load than control cells
same,virus titer via RT-qPCR (N gene),[2],the effect seen on all cell types was comparable
same,Cytotoxicity,[3],non-toxic concentration range
same,IL-1beta gene expression in lung,[4],decrease
same,IL-8 gene expression in lung,[4],decrease
same,IP-10 gene expression in lung,[4],decrease
same,MCP-1 gene expression in lung,[4],decrease
same,MIP-1beta gene expression in lung,[4],decrease
same,TNF-alpha gene expression in lung,[4],decrease
same,MCP-1 expression,[5],able to reduce MCP-1 expression
same,"expression of pro-inflammatory cytokines (IL-6, IL-8, MCP-1, IP-10 and CCL5 mRNA)",[6],reduce the expression of pro-inflammatory cytokines
same,MxA mRNA expression (anti-viral interferon system),[7],did not affect the stimulation of the anti-viral interferon system
same,expression of pro-inflammatory IL8,[7]; even with low concentrations,strong reduction
same,production of progeny viral particles,[8],completely blocked the production of progeny viral particles
same,ACE2 expression,[9],reduction of ACE2
same,internalization of the VSV pseudotype virus (GFP-positive cells),[10],reduction in the internalization of the VSV pseudotype virus
same,blood levels (pharmacokinetics exposure),[11],confirm the maintenance of clinically relevant blood levels
same,safety and tolerability,[11],safe and well tolerable
same,safety of each dose cohort (Safety Review Committee),[11],considered to be safe
same,serious adverse events,[11],no serious adverse events
same,inhibition at 10 µg/mL,"[12]; Homo sapiens, PBMC, read-out: inhibition of LPS induced MCP-1",> 90%
same,IP10 expression,[12]; [15],reduced
same,MCP-1 expression,[12]; [15],reduced
same,TNF-alpha expression,[12]; [15],reduced
same,inhibition of cytokine/chemokine stimulation,[13]; ConA stimulation,"significant, dose dependent inhibition"
same,inhibition of cytokine/chemokine stimulation,[13]; PHA stimulation,"significant, dose dependent inhibition"
same,"Spot counts, representing the number of activated T cells","[14]; CEF peptide stimulated PBMCs, three donors, 5 or 10 pg/mL on three different time points, 12 days",not reduced
same,cell proliferation/density by microscope,[14]; in vitro culture of PBMC,no visible effect on cell proliferation/density
